Measurements from publication PMC8214093, “Structural basis of KdpD histidine kinase binding to the second messenger c-di-AMP” (The Journal of Biological Chemistry, 2021).
“And” between values parts separate entries of the source, which are not always exact repeats. Equal values may be shown once.

Tests used:
[1] = tested on: USPSa-S244A; test: MicroScale Thermophoresis (initial fluorescence change) nucleotide binding; parameters: species or system Staphylococcus aureus; conditions: S244A mutant
Description: (§1) The ligand-binding specificity of USPSa, the role of USPSa residues in c-di-AMP binding, and the c-di-AMP binding affinity of USP homologs were biochemically determined by MST, using purified WT and mutant proteins. […] For these MST experiments, WT and active-site mutants of His6-USPSa were first fluorescently labeled using a RED-Tris NTA Monolith His-Tag labeling kit (Nanotemper, Technologies, Inc). For labeling, the proteins were diluted to a concentration of 800 nM in binding buffer (50 mM potassium phosphate, pH 8.0, 800 mM NaCl, and 0.05% Tween 20), mixed with an equal volume of RED-Tris-NTA dye (80 nM), and incubated on ice in the dark for 30 min. The stock solutions of ligands (c-di-AMP, c-di-GMP, ATP, AMP, c-AMP) were serially diluted with the binding buffer in a 1:1 ratio during each dilution step. The labeled proteins and the ligand dilutions were then mixed in a 1:1 ratio and incubated on ice in the dark for 30 min.
(§2) The samples were then loaded into Monolith standard-treated capillaries in triplicate, and the changes in fluorescence were measured with 40% LED power and 20% IR-laser power for an on-time of 20-s at 23 °C. To determine the binding affinity, the ligand-dependent changes in the intensity of the initial fluorescence, or the thermophoretic mobility, were analyzed according to the law of mass action in a standard fitting mode of MO.Affinity analysis software (version 2.3). To exclude the possibility of nonspecific binding of the ligand to the His6-tag (on USPSa) or ligand-induced USP adsorption to labware or due to aggregation, we performed His6-peptide and EDTA tests, respectively ([91]). In the His6-peptide test, a control His6-peptide was used instead of USP in the binding assay described above, and if no change in initial fluorescence occurred, this confirmed the USP-specific binding of ligands. In the EDTA test, the binding buffer additionally contained 50 mM EDTA to disrupt the interaction between His6-USP and the RED-Tris-NTA dye. The complete loss of the ligand-induced initial fluorescence change in this assay confirmed that this change was neither because of protein aggregation nor because of protein adsorption to labware.
(§3) The Ka values of WT USPSa for c-di-AMP or AMP were set to 100% relative affinity, and the binding affinities of the other nucleotides (Fig. 1C), or USPSa mutants (Fig. 4E), or USP homologs (Fig. 6, B and C) were depicted as percent values compared with the values of the WT USPSa.

[2] = molecular target: T1, USPSa-H331A (Staphylococcus aureus, UniProt A0A7U7EVR3, H331A); test: as above; conditions: H331A mutant; MST, initial fluorescence; read-out: Dissociation Constant (KD) ± Standard Deviation
T1 sequence (A0A7U7EVR3 213-364 H331A): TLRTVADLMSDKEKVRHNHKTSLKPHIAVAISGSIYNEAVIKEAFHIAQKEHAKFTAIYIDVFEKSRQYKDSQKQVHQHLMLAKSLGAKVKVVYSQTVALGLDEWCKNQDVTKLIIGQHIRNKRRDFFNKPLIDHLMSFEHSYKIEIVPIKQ
Description: as §1, §2, §3

[3] = molecular target: USPSa-V310A (Staphylococcus aureus, UniProt A0A7U7EVR3, V310A); test: as above; conditions: V310A mutant, MST, read-out: Dissociation Constant (KD) ± Standard Deviation
Description: as §1, §2, §3

[4] = molecular target: T2, USPSa-S246A (Staphylococcus aureus, UniProt A0A7U7EVR3, S246A); test: as above; conditions: S246A mutant; MST, initial fluorescence; read-out: Dissociation Constant (KD) ± Standard Deviation
T2 sequence (A0A7U7EVR3 213-364 S246A): T1 sequence (A0A7U7EVR3 213-364 H331A)
Description: as §1, §2, §3

[5] = molecular target: T3, USPSa-A242G (Staphylococcus aureus, UniProt A0A7U7EVR3, A242G); test: as above
T3 sequence (A0A7U7EVR3 213-364 A242G): T1 sequence (A0A7U7EVR3 213-364 H331A)
Description: as §1, §2, §3

[6] = molecular target: T4, USPSa-L344A (Staphylococcus aureus, UniProt A0A7U7EVR3, L344A); test: as above; conditions: L344A mutant; MST, initial fluorescence; read-out: Dissociation Constant (KD) ± Standard Deviation
T4 sequence (A0A7U7EVR3 213-364 L344A): T1 sequence (A0A7U7EVR3 213-364 H331A)
Description: as §1, §2, §3

[7] = molecular target: T5, USPSa-S244D (Staphylococcus aureus, UniProt A0A7U7EVR3, S244D); test: as above; conditions: S244D mutant
T5 sequence (A0A7U7EVR3 213-364 S244D): T1 sequence (A0A7U7EVR3 213-364 H331A)
Description: as §1, §2, §3

[8] = molecular target: T6, USPSa-Y248A (Staphylococcus aureus, UniProt A0A7U7EVR3, Y248A); test: as above; conditions: Y248A mutant; MST, initial fluorescence; read-out: Dissociation Constant (KD) ± Standard Deviation
T6 sequence (A0A7U7EVR3 213-364 Y248A): T1 sequence (A0A7U7EVR3 213-364 H331A)
Description: as §1, §2, §3

[9] = molecular target: USPSa-K282A (Staphylococcus aureus, UniProt A0A7U7EVR3, K282A); test: as above; conditions: K282A mutant, MST, read-out: Dissociation Constant (KD) ± Standard Deviation
Description: as §1, §2, §3

[10] = molecular target: T7, USPSa-Y281F (Staphylococcus aureus, UniProt A0A7U7EVR3, Y281F); test: as above; conditions: Y281F mutant; MST, initial fluorescence; read-out: Dissociation Constant (KD) ± Standard Deviation
T7 sequence (A0A7U7EVR3 213-364 Y281F): T1 sequence (A0A7U7EVR3 213-364 H331A)
Description: as §1, §2, §3

[11] = molecular target: T8, USPSa-N249A (Staphylococcus aureus, UniProt A0A7U7EVR3, N249A); test: as above; conditions: N249A mutant
T8 sequence (A0A7U7EVR3 213-364 N249A): T1 sequence (A0A7U7EVR3 213-364 H331A)
Description: as §1, §2, §3

[12] = molecular target: USPSa-Q280A (Staphylococcus aureus, UniProt A0A7U7EVR3, Q280A); test: as above; conditions: Q280A mutant, MST, read-out: Dissociation Constant (KD) ± Standard Deviation
Description: as §1, §2, §3

[13] = tested on: maltose-binding protein–tagged version of the USPSa Y271A mutant; parameters: method as in PMID 26195599; conditions: cited from earlier work
[14] = molecular target: T9, USPSa-K277A (Staphylococcus aureus, UniProt A0A7U7EVR3, K277A); test: MicroScale Thermophoresis (thermophoretic mobility change) nucleotide binding; conditions: K277A mutant; MST, change in thermophoretic mobility; read-out: Dissociation Constant (KD) ± Standard Deviation
T9 sequence (A0A7U7EVR3 213-364 K277A): T1 sequence (A0A7U7EVR3 213-364 H331A)
Description: as §1, §2, §3

[15] = molecular target: T10, USPSa-WT (Staphylococcus aureus, UniProt A0A7U7EVR3); test: as above; conditions: MST, change in thermophoretic mobility, read-out: Dissociation Constant (KD) ± Standard Deviation
Description: as §1, §2, §3

[16] = molecular target: USPSa-R279A (Staphylococcus aureus, UniProt A0A7U7EVR3, R279A); test: as above; conditions: R279A mutant; MST, change in thermophoretic mobility; read-out: Dissociation Constant (KD) ± Standard Deviation
Description: as §1, §2, §3

[17] = molecular target: T10, USPSa-WT; test: biochemical; assay type: binding; conditions: His6-USPSa WT, MST, changes in initial fluorescence; for Dissociation Constant (KD) ± Standard Deviation: columns without unit
Description: For labeling, the proteins were diluted to a concentration of 800 nM in binding buffer (50 mM potassium phosphate, pH 8.0, 800 mM NaCl, and 0.05% Tween 20), mixed with an equal volume of RED-Tris-NTA dye (80 nM), and incubated on ice in the dark for 30 min. […] The labeled proteins and the ligand dilutions were then mixed in a 1:1 ratio and incubated on ice in the dark for 30 min.
as §2, with “In the His6-peptide test, a control His6-peptide was used instead of USP in the binding assay described above, and if no change in initial fluorescence occurred, this confirmed the USP-specific binding of ligands.” left out, “dye.” for “dye. The complete loss of the ligand-induced initial fluorescence change in this assay confirmed that this change was neither because of protein aggregation nor because of protein adsorption to labware.”

[18] = molecular target: T11, USPMtb-WT (Mycobacterium tuberculosis, UniProt P9WGL3); test: biochemical; assay type: binding
T11 construct: made in house; host or cells: E. coli C41 (DE3), pTB146, no KdpE co-expression

[19] = tested on: untagged USPSa; test: fluorescence-based thermal shift (ThermoFluor) assay; assay type: binding, Staphylococcus aureus; conditions: 7.5-fold molar excess of c-di-AMP; purified untagged USPSa
Description: The plates were then sealed with Microseal “B” Seal Seals (Bio-Rad Laboratories) and heated in a CFX96 real-time PCR system (Bio-Rad Laboratories) from 25 °C to 99 °C in increments of 0.5 °C. Fluorescence changes in the plate wells were monitored simultaneously with a charge-coupled device camera, utilizing excitation and emission wavelengths of 497 nm and 520 nm, respectively.

[20] = molecular target: USPSp-WT; assay type: binding, Streptococcus pneumoniae; conditions: MST, change in thermophoretic mobility, read-out: Dissociation Constant (KD) ± Standard Deviation
[21] = molecular target: USPSa2-WT (Staphylococcus aureus, UniProt Q5HK61); test: biochemical; assay type: binding; conditions: MST, change in thermophoretic mobility, read-out: Dissociation Constant (KD) ± Standard Deviation
[22] = molecular target: maltose-binding protein–tagged USP; conditions: differential radial capillary action of ligand assay, read-out: previously reported KD; cited from earlier work

## Nc1ncnc2c1ncn2[C@@H]1O[C@@H]2COP(=O)(O)O[C@H]3[C@@H](O)[C@H](n4cnc5c(N)ncnc54)O[C@@H]3COP(=O)(O)O[C@H]2[C@H]1O [c-di-AMP, cyclic-di-adenosine monophosphate]
[1]
  binding in MST analysis (in words): complete loss
[1]; MST, initial fluorescence
  Dissociation Constant (KD) ± Standard Deviation: No Binding Observed
[2]
  Kd: 2370 ± 1320 nM
[3]
  Kd: 1710 ± 420 nM
[4]
  Kd: 1300 ± 190 nM
[5]
  improvement of binding affinity versus WT USPSa: ~50 fold
[5]; A242G mutant, MST, initial fluorescence, read-out: Dissociation Constant (KD) ± Standard Deviation
  Kd: 10 ± 10 nM
[6]
  Kd: 8840 ± 1090 nM
[7]
  binding (in words): completely abolished
[7]; MST, initial fluorescence
  Dissociation Constant (KD) ± Standard Deviation: No Binding Observed
[8]
  Kd: 4220 ± 110 nM
[9]
  Kd: 600 ± 240 nM
[10]
  Kd: 1790 ± 840 nM
[11]
  binding affinity versus WT USPSa (in words): significant reduction
[11]; MST, initial fluorescence, read-out: Dissociation Constant (KD) ± Standard Deviation
  Kd: 7840 ± 340 nM
[12]
  Kd: 870 ± 60 nM
[13]
  c-di-AMP binding in vitro (in words): deficient in c-di-AMP binding
[14]
  Kd: 10100 ± 240 nM
[15]
  Kd: 3130 ± 750 nM
[16]
  Kd: 8670 ± 750 nM
[17]; Dissociation Constant (KD) ± Standard Deviation
  Kd: 500 nM and 530 nM
[18]
  Kd: 666000 ± 168000 nM
[19]
  increase of melting temperature of USPSa: 10 °C
[20]
  Kd: 67500 ± 13000 nM
[21]
  Kd: 125000 ± 15000 nM
[22]
  Kd: 2000 ± 180 nM

## Nc1nc2c(ncn2[C@@H]2O[C@@H]3COP(=O)(O)O[C@H]4[C@@H](O)[C@H](n5cnc6c(=O)[nH]c(N)nc65)O[C@@H]4COP(=O)(O)O[C@H]3[C@H]2O)c(=O)[nH]1 [c-di-GMP]
[17]
  Dissociation Constant (KD) ± Standard Deviation: No Binding Observed

## Nc1ncnc2c1ncn2[C@@H]1O[C@@H]2COP(=O)(O)O[C@H]3[C@@H](O)[C@H](n4cnc5c(N)ncnc54)O[C@@H]3COP(=O)(O)O[C@H]3[C@@H](O)[C@H](n4cnc5c(N)ncnc54)O[C@@H]3COP(=O)(O)O[C@H]2[C@H]1O [c-tri-AMP]
[17]
  Dissociation Constant (KD) ± Standard Deviation: No Binding Observed
